Laboratory results as given in the supplement of paper PMC11208160.

assay: recombinant barcode read abundance after kanamycin selection (control-corrected) (log10(CPM+1)); higher = more efficient recombination; sequences stand for … in AGTGCAGAGAAAATCGGCCAGTTTTCTCTGCCTGCAGTCCGCATGCCGT…AGATTTATGCAGCGGACTGCCTTTCTCCCAAAGTGATAAACCGGACAGTATCATGGACCGGTTTTCCCGGTAATCCGTATTTGCAAGGTTGGTTTCACT; site = the 11-nt target
Protocol: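 Pooled E. coli target-specificity screen for the IS621 bridge recombinase. Each library plasmid pairs an 11-nt target (CT core) with a bridge RNA whose target-binding loop (9-nt LTG + 4-nt RTG) is reprogrammed; the rest of the 177-nt WT IS621 bridge RNA scaffold is fixed. The plasmid is co-electroporated with a WT donor plasmid; recombinase is induced with 0.1 mM IPTG and recombinants are selected on kanamycin. Recombinant barcodes are sequenced, converted to CPM, averaged over two biological replicates and corrected by the unselected control CPM. Molecule = full bridge RNA written as DNA: LTG = specificity nt 1-9, RTG = reverse complement of specificity nt 8-11, in the WT scaffold.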
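Further: IS621 recombinase and bridge RNA in Escherichia coli cells.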

Sequence | recombinant barcode read abundance (log10)
AATTGAGCTTGGGTTCTAACCTGTTGCCT (site AATTCAGCTAG) | 0.0625
AATTGAGCTTGGGTTCTAACCTGTTGCCT (site AATTGAGCTAG) | 0.887
AATTGAGCTTGGGTTCTAACCTGTTGCCT (site AATTTAGCTAG) | 0.242
AATTGCCCTTGGGTTCTAACCTGTTGCCT (site AATTGCCCTAG) | 0.369
AATTGCCCTTGGGTTCTAACCTGTTGCCT (site ACTTGCCCTAG) | 0.00964
AATTGCCCTTGGGTTCTAACCTGTTGCCT (site AGTTGCCCTAG) | 0.0557
AATTGCCCTTGGGTTCTAACCTGTTGCCT (site ATTTGCCCTAG) | 0.166
AATTGGACTTGGGTTCTAACCTGTTGCTT (site AATTGGACTAA) | 0.355
AATTGGACTTGGGTTCTAACCTGTTGCTT (site CATTGGACTAA) | 0.0957
AATTGGACTTGGGTTCTAACCTGTTGCTT (site GATTGGACTAA) | 0.0807
AATTGGACTTGGGTTCTAACCTGTTGCTT (site TATTGGACTAA) | 0.455
AATTGTCCTTGGGTTCTAACCTGTTGCGT (site AATTGTCCTAA) | 0.0377
AATTGTCCTTGGGTTCTAACCTGTTGCGT (site AATTGTCCTAC) | 1.17
AATTGTCCTTGGGTTCTAACCTGTTGCGT (site AATTGTCCTAG) | 0.154
AATTGTCCTTGGGTTCTAACCTGTTGCGT (site AATTGTCCTAT) | 0.0639
ACAAACCCTTGGGTTCTAACCTGTTGCTA (site ACAAACCCTTA) | 0.672
ACAAACCCTTGGGTTCTAACCTGTTGCTA (site CTGGCAGCTAG) | 0.85
ACAAATCCTTGGGTTCTAACCTGTTGCCT (site ACAAAACCTAG) | 0.116
ACAAATCCTTGGGTTCTAACCTGTTGCCT (site ACAAACCCTAG) | 0.292
ACAAATCCTTGGGTTCTAACCTGTTGCCT (site ACAAAGCCTAG) | 0.0186
ACAAATCCTTGGGTTCTAACCTGTTGCCT (site ACAAATCCTAG) | 0.591

Sequence | recombinant barcode read abundance (log10)
ACAACGACTTGGGTTCTAACCTGTTGCCT (site ACAACCACTAG) | 0.0471
ACAACGACTTGGGTTCTAACCTGTTGCCT (site ACAACGACTAG) | 0.689
ACAAGGCCTTGGGTTCTAACCTGTTGCAT (site ACAAGGCCTAT) | 1.38
ACAAGGCCTTGGGTTCTAACCTGTTGCAT (site TGCCCCTCTCG) | 0.263
ACAAGGGCTTGGGTTCTAACCTGTTGCTG (site ACAAGGGCTCA) | 2.06
ACAAGGGCTTGGGTTCTAACCTGTTGCTG (site GAGGCTACTAT) | 0.531
ACAATATCTTGGGTTCTAACCTGTTGCCT (site ACAATATCTAG) | 0.774
ACAATATCTTGGGTTCTAACCTGTTGCCT (site ACATGATCTAG) | 0.242
ACACATACTTGGGTTCTAACCTGTTGCCT (site ACACATACTAG) | 0.302
ACACATACTTGGGTTCTAACCTGTTGCCT (site ACGCATACTAG) | 0.104
ACACCCTCTTGGGTTCTAACCTGTTGCAG (site ACACCCTCTCT) | 1.79
ACACCCTCTTGGGTTCTAACCTGTTGCAG (site GGTATAACTTG) | 0.271
ACACCGTCTTGGGTTCTAACCTGTTGCCT (site ACACCGTCTAG) | 2.12
ACACCGTCTTGGGTTCTAACCTGTTGCCT (site AGACCTTCTAG) | 0
ACACGACCTTGGGTTCTAACCTGTTGCGG (site ACACGACCTCC) | 2.48
ACACGACCTTGGGTTCTAACCTGTTGCGG (site ACAGGAGCTCC) | 0
ACAGAGACTTGGGTTCTAACCTGTTGCAG (site ACAGAGACTCT) | 1.35
ACAGAGACTTGGGTTCTAACCTGTTGCAG (site ACGTAGACTCT) | 0.113
ACAGCTACTTGGGTTCTAACCTGTTGCCT (site ACAGCTACTAG) | 1.84
ACAGCTACTTGGGTTCTAACCTGTTGCCT (site ACAGCTTCTAG) | 0.33
ACAGCTACTTGGGTTCTAACCTGTTGCTT (site ACAGCTACTAA) | 0.699

Sequence | recombinant barcode read abundance (log10)
ACAGCTACTTGGGTTCTAACCTGTTGCTT (site GCAGCTACTCA) | 0.0436
ACAGGGTCTTGGGTTCTAACCTGTTGCCT (site AAAGGGTCTAG) | 0
ACAGGGTCTTGGGTTCTAACCTGTTGCCT (site ACAGGGTCTAG) | 2.32
ACAGGGTCTTGGGTTCTAACCTGTTGCCT (site AGAGGGTCTAG) | 0.193
ACAGGGTCTTGGGTTCTAACCTGTTGCCT (site ATAGGGTCTAG) | 0.355
ACAGGTCCTTGGGTTCTAACCTGTTGCCG (site ACAGGTCCTCG) | 2.34
ACAGGTCCTTGGGTTCTAACCTGTTGCCG (site GTCTAATCTAT) | 0.12
ACAGTACCTTGGGTTCTAACCTGTTGCTG (site ACAGTACCTCA) | 1.87
ACAGTACCTTGGGTTCTAACCTGTTGCTG (site TAGCCCTCTTT) | 0.204
ACAGTTACTTGGGTTCTAACCTGTTGCAT (site ACAGTTACTAT) | 1.29
ACAGTTACTTGGGTTCTAACCTGTTGCAT (site TTGTGAGCTTG) | 0.737
ACATACCCTTGGGTTCTAACCTGTTGCTG (site ACATACCCTCA) | 1.81
ACATACCCTTGGGTTCTAACCTGTTGCTG (site CTTCGAACTAT) | 0.142
ACATGGACTTGGGTTCTAACCTGTTGCAT (site ACATGAACTAT) | 0.753
ACATGGACTTGGGTTCTAACCTGTTGCAT (site ACATGCACTAT) | 0.115
ACATGGACTTGGGTTCTAACCTGTTGCAT (site ACATGGACTAT) | 2.72
ACATGGACTTGGGTTCTAACCTGTTGCAT (site ACATGTACTAT) | 0.157
ACATGTACTTGGGTTCTAACCTGTTGCAG (site ACATGTACTCT) | 1.28
ACATGTACTTGGGTTCTAACCTGTTGCAG (site AGATGTACTCA) | 0.0852
ACATGTACTTGGGTTCTAACCTGTTGCAT (site ACATGAACTAT) | 0.0356
ACATGTACTTGGGTTCTAACCTGTTGCAT (site ACATGCACTAT) | 0

Sequence | recombinant barcode read abundance (log10)
ACATGTACTTGGGTTCTAACCTGTTGCAT (site ACATGGACTAT) | 0.121
ACATGTACTTGGGTTCTAACCTGTTGCAT (site ACATGTACTAT) | 0.888
ACATGTACTTGGGTTCTAACCTGTTGCCG (site ACATGTACTCA) | 0.0415
ACATGTACTTGGGTTCTAACCTGTTGCCG (site ACATGTACTCG) | 0.158
ACATGTACTTGGGTTCTAACCTGTTGCTG (site ACATGTACTCA) | 1.1
ACATGTACTTGGGTTCTAACCTGTTGCTG (site ACATGTACTCG) | 0.182
ACATTGCCTTGGGTTCTAACCTGTTGCCT (site ACATTGCCTAG) | 0.44
ACATTGCCTTGGGTTCTAACCTGTTGCCT (site ACCTTGCCTAG) | 0.0938
ACATTGCCTTGGGTTCTAACCTGTTGCCT (site ACGTTGCCTAG) | 0.732
ACATTGCCTTGGGTTCTAACCTGTTGCCT (site ACTTTGCCTAG) | 0
ACCAAGTCTTGGGTTCTAACCTGTTGCGC (site ACCAAGTCTAC) | 0.251
ACCAAGTCTTGGGTTCTAACCTGTTGCGC (site ACCAAGTCTGC) | 1.74
ACCACAGCTTGGGTTCTAACCTGTTGCCT (site ACCAAAGCTTG) | 0.16
ACCACAGCTTGGGTTCTAACCTGTTGCCT (site ACCACAGCTAG) | 0.283
ACCAGATCTTGGGTTCTAACCTGTTGCCT (site ACCAGATCTAG) | 0.846
ACCAGATCTTGGGTTCTAACCTGTTGCCT (site TCCAGCTCTAG) | 0.152
ACCCAGCCTTGGGTTCTAACCTGTTGCAG (site ACCCAGCCTCT) | 2.27
ACCCAGCCTTGGGTTCTAACCTGTTGCAG (site TGAGTCTCTTG) | 0.0203
ACCCAGCCTTGGGTTCTAACCTGTTGCAT (site ACCCAGCCTAA) | 1.4
